Measured values from patent US20230278972A1, “SUBSTITUTED HALOALKYL SULFONANILIDE HERBICIDES” (FMC Corporation, priority 2020, published 2023).
Where two headings read alike, the source gives them in different places.

How the values were obtained:
[1] = tested on: pigweed (Amaranthus retroflexus); test: Test A preemergence, pigweed; format: in vivo; conditions: Amaranthus retroflexus, pre-emergence, 240 h; for pest or weed control at 125 g/ha: 125 g ai/ha; for pest or weed control at 500 g/ha: 500 g ai/ha
Method in brief: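 Formulated with a surfactant in a non-phytotoxic solvent, compounds are applied to loam–sand pots, either to bare soil immediately after seeding (preemergence) or to seedlings of 2 to 10 cm bearing one to two leaves (postemergence).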

[2] = visual injury on 0 to 100 scale (0 no effect, 100 complete control), approximately 10 days, read-out: Pigweed plant response rating
[3] = 0 to 100 scale (0 no effect, 100 complete control), read-out: Plant response rating, Pigweed
[4] = visual injury, 0 to 100 scale (0 no effect, 100 complete control), approx. 10 days, read-out: Plant response rating, Pigweed

Row | melting point [°C] | SMILES | pest or weed control at 125 g/ha [1, 2] [%] | pest or weed control at 500 g/ha [1, 3] [%] | pest or weed control at 125 g/ha [1, 4] [%] | pest or weed control at 500 g/ha [1, 2] [%]
1 | – | Cc1cc(Cl)c(NS(=O)(=O)C(F)(F)F)cc1C(=O)N1CCOCC1 [Compound 16, N-[2-Chloro-4-methyl-5-(4-morpholinylcarbonyl)phenyl]-1,1,1-trifluoromethanesulfonamide] | 100 | 100 | – | –
2 | – | Cc1cc(Cl)c(NS(=O)(=O)C(F)(F)F)cc1C(=O)N1CCCCC1 [Compound 18, N-[2-Chloro-4-methyl-5-(1-piperidinylcarbonyl)phenyl]-1,1,1-trifluoromethanesulfonamide] | 100 | 100 | – | –
3 | – | Cc1cc(C)c(N(COC(=O)C(C)(C)C)S(=O)(=O)C(F)(F)F)cc1C1=NO[C@@H]2CCC[C@H]12 [Compound 100, [[2,4-Dimethyl-5-[(3aR,6aR)-3a,5,6,6a-tetrahydro-4H-cyclopent[d]isoxazol-3-yl]phenyl][(trifluoromethyl)sulfonyl]amino]methyl 2,2-dimethylpropanoate] | 70 | 80 | – | –
4 | – | Cc1cc(C)c(C2=NO[C@@H]3CCC[C@H]23)cc1NS(=O)(=O)C(F)(F)F [Compound 103, N-[2,4-Dimethyl-5-[(3aR,6aR)-3a,5,6,6a-tetrahydro-4H-cyclopent[d]isoxazol-3-yl]phenyl]-1,1,1-trifluoromethanesulfonamide] | 100 | 100 | – | –
5 | 117 to 120 | Cc1cc(C)c(C2=NOC3COCCC23)cc1NS(=O)(=O)C(F)(F)F (centres unmarked) [Compound 121, N-[2,4-Dimethyl-5-(3a,4,7,7a-tetrahydro-5H-pyrano[4,3-d]isoxazol-3-yl)phenyl]-1,1,1-trifluoromethanesulfonamide] | – | – | – | –
6 | 243 to 245 | Cc1c(NS(=O)(=O)C(F)(F)F)cc(C(=O)N(C)C)c(C)c1F [Compound 128, 3-Fluoro-N,N,2,4-tetramethyl-5-[[(trifluoromethyl)sulfonyl]amino]benzamide] | 100 | 100 | – | –
7 | – | Cc1cc(C)c(N(COC(=O)C(C)(C)C)S(=O)(=O)C(F)(F)F)cc1C1=NOC2(CCCC2)C1 [Compound 140, [[2,4-Dimethyl-5-(1-oxa-2-azaspiro[4.4]non-2-en-3-yl)phenyl][(trifluoromethyl)sulfonyl]amino]methyl 2,2-dimethylpropanoate] | 0 | 50 | – | –
8 | 236 to 240 | Cc1c(NS(=O)(=O)C(F)(F)F)cc(C(=O)N2CCOCC2)c(C)c1F [Compound 190, 1,1,1-Trifluoro-N-[3-fluoro-2,4-dimethyl-5-(4-morpholinylcarbonyl)phenyl]methanesulfonamide] | – | 100 | 100 | –
9 | – | Cc1cc(C)c(C2=NOC3(CCCCC3)C2)cc1NS(=O)(=O)C(F)(F)F [Compound 197, N-[2,4-Dimethyl-5-(1-oxa-2-azaspiro[4.5]dec-2-en-3-yl)phenyl]-1,1,1-trifluoromethanesulfonamide] | – | 100 | 80 | –
10 | – | Cc1cc(C)c(C2=NOC3(CCCC3)C2)cc1NS(=O)(=O)C(F)(F)F [Compound 207, N-[2,4-Dimethyl-5-(1-oxa-2-azaspiro[4.4]non-2-en-3-yl)phenyl]-1,1,1-trifluoromethanesulfonamide] | – | 100 | 100 | –
11 | – | Cc1cc(Cl)c(NS(=O)(=O)C(F)(F)F)cc1C(=O)N1CCC(F)(F)CC1 [Compound 229, N-[2-Chloro-5-[(4,4-difluoro-1-piperidinyl)carbonyl]-4-methylphenyl]-1,1,1-trifluoromethanesulfonamide] | – | – | 100 | 100
12 | – | Cc1cc(C)c(C(=O)N2CCC(F)(F)CC2)cc1NS(=O)(=O)C(F)(F)F [Compound 241, N-[5-[(4,4-Difluoro-1-piperidinyl)carbonyl]-2,4-dimethylphenyl]-1,1,1-trifluoromethanesulfonamide] | – | – | 100 | 100
13 | 247 to 250 | Cc1c(NS(=O)(=O)C(F)(F)F)cc(C(=O)N2CCOCC2)c(C)c1C [Compound 289, 1,1,1-Trifluoro-N-[2,3,4-trimethyl-5-(4-morpholinylcarbonyl)phenyl]methanesulfonamide] | – | – | – | –
